# Data published in ChEMBL document CHEMBL1148160, “Planaxool: a novel cytotoxic cembranoid form the mollusk Planaxis sulcatus” (1993).
# Test system: L1210
# Assay: Cytotoxicity against mouse L1210 cells
# Format: functional
structure (smiles),measurement,value
C/C1=C\CC[C@]2(C)O[C@H]([C@@H]3OC(=O)[C@]4(OO)CCO[C@@H]2C[C@H]34)[C@H](C)CCC1 [PLANAXOOL],IC100,2.4 µg/mL
